Measured values from ChEMBL document CHEMBL1201862, “PubChem BioAssay data set” (2004).
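48-hour exposure; five concentrations; linearly interpolated endpoints. Here, GI50 denotes the concentration required for 50% inhibition of growth.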 The source made the active and inactive calls. Cut-off read from the data, not from the text of the source: active = GI50 up to about 1.1 µM and inactive = higher.

Key:
Assay in all cases: DTP human tumour cell line panel, 48 h
[1] = test system: 786-0
[2] = test system: IGROV-1
[3] = test system: KM12
[4] = test system: LOX IMVI
[5] = test system: M14
[6] = test system: MCF7
[7] = test system: MDA-N
[8] = test system: MOLT-4
[9] = test system: Malme-3M
[10] = test system: NCI-H226
[11] = test system: NCI/ADR-RES
[12] = test system: OVCAR-5
[13] = test system: PC-3
[14] = test system: RPMI-8226
[15] = test system: SK-MEL-5
[16] = test system: SN12C
[17] = test system: SNB-19
[18] = test system: SW-620
[19] = test system: UO-31
[20] = test system: UACC-62

O=C(CC(=O)N(C(=O)c1ccccc1)c1ccc(Cl)cc1)N/N=C\c1ccccc1O
GI50 [1]: 40 µM (inactive)
GI50 [2]: 25.4 µM (inactive)
GI50 [3]: 33.5 µM (inactive)
GI50 [4]: 58.1 µM (inactive)
GI50 [5]: > 100 µM (inactive)
GI50 [6]: 60.7 µM (inactive)
GI50 [7]: > 100 µM (inactive)
GI50 [8]: 2.61 µM (inactive)
GI50 [9]: > 100 µM (inactive)
GI50 [10]: 35.5 µM (inactive)
GI50 [11]: 50.6 µM (inactive)
GI50 [12]: 36.6 µM (inactive)
GI50 [13]: 39.3 µM (inactive)
GI50 [14]: > 100 µM (inactive)
GI50 [15]: 64 µM (inactive)
GI50 [16]: > 100 µM (inactive)
GI50 [17]: 30.3 µM (inactive)
GI50 [18]: > 100 µM (inactive)
GI50 [19]: 38.7 µM (inactive)

CN(CCCCCl)P(=O)(OCc1ccc([N+](=O)[O-])o1)OCC1OC(n2ccc(N)nc2=O)C(O)C1O (stereo unspecified)
GI50 [1]: 13.4 µM (inactive)
GI50 [2]: 3.08 µM (inactive)
GI50 [3]: 3.24 µM (inactive)
GI50 [4]: 7.24 µM (inactive)
GI50 [5]: 7.48 µM (inactive)
GI50 [6]: 1.82 µM (inactive)
GI50 [7]: 1.82 µM (inactive)
GI50 [8]: 0.305 µM (active)
GI50 [9]: 1.16 µM (inactive)
GI50 [10]: 11.4 µM (inactive)
GI50 [11]: 4.47 µM (inactive)
GI50 [12]: 14.8 µM (inactive)
GI50 [13]: 2.39 µM (inactive)
GI50 [14]: 1.57 µM (inactive)
GI50 [15]: 0.097 µM (active)
GI50 [16]: 3.52 µM (inactive)
GI50 [17]: 3.21 µM (inactive)
GI50 [18]: 2.45 µM (inactive)
GI50 [20]: 12.9 µM (inactive)
GI50 [19]: 14.2 µM (inactive)

Fc1cccc(Cl)c1C1SCc2nc3cc4ccccc4cc3n21 (stereo unspecified)
GI50 [1]: 39.4 µM (inactive)
GI50 [2]: 46.9 µM (inactive)
GI50 [3]: > 100 µM (inactive)
GI50 [4]: > 100 µM (inactive)
GI50 [5]: > 100 µM (inactive)
GI50 [6]: > 100 µM (inactive)
GI50 [7]: > 100 µM (inactive)
GI50 [8]: > 100 µM (inactive)
GI50 [9]: 43.4 µM (inactive)
GI50 [10]: 33.8 µM (inactive)
GI50 [11]: 64.6 µM (inactive)
GI50 [12]: > 100 µM (inactive)
GI50 [13]: > 100 µM (inactive)
GI50 [14]: > 100 µM (inactive)
GI50 [16]: 61.1 µM (inactive)
GI50 [17]: 52.7 µM (inactive)
GI50 [18]: > 100 µM (inactive)
GI50 [20]: 43.6 µM (inactive)

O=C1CC(c2n[nH]c3ccccc23)C(=O)N1c1ccccc1 (stereo unspecified)
GI50 [1]: > 100 µM (inactive)
GI50 [2]: > 100 µM (inactive)
GI50 [3]: > 100 µM (inactive)
GI50 [4]: > 100 µM (inactive)
GI50 [5]: > 100 µM (inactive)
GI50 [6]: > 100 µM (inactive)
GI50 [7]: > 100 µM (inactive)
GI50 [8]: > 74 µM (inactive)
GI50 [9]: > 100 µM (inactive)
GI50 [10]: > 88.5 µM (inactive)
GI50 [11]: > 100 µM (inactive)
GI50 [12]: > 100 µM (inactive)
GI50 [13]: > 100 µM (inactive)
GI50 [14]: 82.8 µM (inactive)
GI50 [15]: > 100 µM (inactive)
GI50 [16]: > 100 µM (inactive)
GI50 [17]: > 100 µM (inactive)
GI50 [18]: > 84.1 µM (inactive)
GI50 [20]: > 100 µM (inactive)
GI50 [19]: > 100 µM (inactive)

CCNc1ncnc2c1nnn2CC
GI50 [1]: > 100 µM (inactive)
GI50 [2]: > 100 µM (inactive)
GI50 [3]: > 100 µM (inactive)
GI50 [4]: > 100 µM (inactive)
GI50 [5]: > 100 µM (inactive)
GI50 [6]: > 100 µM (inactive)
GI50 [7]: > 100 µM (inactive)
GI50 [8]: > 100 µM (inactive)
GI50 [9]: > 100 µM (inactive)
GI50 [10]: > 100 µM (inactive)
GI50 [11]: > 100 µM (inactive)
GI50 [13]: > 100 µM (inactive)
GI50 [14]: > 100 µM (inactive)
GI50 [15]: > 100 µM (inactive)
GI50 [16]: > 100 µM (inactive)
GI50 [17]: > 100 µM (inactive)
GI50 [18]: > 100 µM (inactive)
GI50 [20]: > 100 µM (inactive)
GI50 [19]: > 100 µM (inactive)

COc1cc2c(cc1OC)C(CCN)=NCC2
GI50 [1]: 5.08 µM (inactive)
GI50 [2]: 22.6 µM (inactive)
GI50 [3]: 19 µM (inactive)
GI50 [4]: 18.8 µM (inactive)
GI50 [5]: 17.2 µM (inactive)
GI50 [6]: 18.2 µM (inactive)
GI50 [7]: 15.8 µM (inactive)
GI50 [8]: 17.1 µM (inactive)
GI50 [9]: 18.8 µM (inactive)
GI50 [10]: > 46.1 µM (inactive)
GI50 [11]: 27.4 µM (inactive)
GI50 [12]: > 42.6 µM (inactive)
GI50 [13]: 16 µM (inactive)
GI50 [14]: 5.33 µM (inactive)
GI50 [15]: 20 µM (inactive)
GI50 [16]: 19 µM (inactive)
GI50 [17]: 41.4 µM (inactive)
GI50 [18]: 5 µM (inactive)
GI50 [20]: 18.2 µM (inactive)
GI50 [19]: 1.77 µM (inactive)

C=C1C(=O)C23CC1CCC2C12CO[C@H](O)[C@H]1C(C)(C)[C@H](OC(C)=O)C[C@H]2OC3=O (stereo partly specified)
GI50 [1]: 16 µM (inactive)
GI50 [2]: 31.9 µM (inactive)
GI50 [3]: 23 µM (inactive)
GI50 [4]: 18.1 µM (inactive)
GI50 [5]: 25.4 µM (inactive)
GI50 [6]: 15.8 µM (inactive)
GI50 [7]: 16.1 µM (inactive)
GI50 [8]: 15.2 µM (inactive)
GI50 [9]: 13.3 µM (inactive)
GI50 [10]: > 100 µM (inactive)
GI50 [11]: 28.1 µM (inactive)
GI50 [12]: 18.8 µM (inactive)
GI50 [13]: > 100 µM (inactive)
GI50 [14]: 76.7 µM (inactive)
GI50 [15]: 30.8 µM (inactive)
GI50 [16]: 21.1 µM (inactive)
GI50 [17]: > 100 µM (inactive)
GI50 [18]: 14.3 µM (inactive)
GI50 [20]: 15 µM (inactive)
GI50 [19]: 22.9 µM (inactive)
